Consider one compound from US11542508B2, “Isolated polynucleotides and polypeptides and methods of using same for expressing an expression product of interest” (priority 2016, dated 2023).

Holding throughout (format): cell-based
For one experiment, the system named is phi3T. The experiment is described as follows: Growth dynamics of phage-infected cultures (phi3T infection of B. subtilis 168). How it is done:
Specifically, overnight cultures of B. subtilis strain 168 were diluted 1:50 in LB media supplemented with 0.1 mM MnCl2 and 5 mM MgCl2, and incubated at 37° C. with shaking until reaching optical density (O.D) 600 nm=0.5. Phages (phi29, phi105, rho14 or phi3T) were added to the bacterial culture at MOI=1 and incubated for 3 hours. The media were centrifuged at 4000 rpm for 10 minutes at 4° C. and the supernatant was filtered with 0.2 μm filer (GE Healthcare Life Sciences, Whatman, CAT #10462200). Phages and large molecules were further filtered out from the media by using Amicon Ultra centrifugal filters at a cutoff of 3,000 NMWL (3 kDa) (Milipore, CAT #UFC900324). A plaque assay was performed in order to verify that no phages were left in the medium.
7.5 mg (per reaction) of Proteinase K-Agarose from Tritirachium album (Sigma, CAT #P9290) were washed twice with 750 μl of sterile water and then resuspended with 750 μl of LB supplemented with 0.1 mM MnCl2 and 5 mM MgCl2. Following, the tubes were centrifuged again and the supernatant was discarded. 1.5 ml of phi3T-derived conditioned medium or control medium was added to a tube containing the washed proteinase K. The media were incubated for 2 hours at 37° C. with the proteinase K. The media were centrifuged and the supernatants were collected for the infection assay.
(§1) Overnight cultures of bacteria were diluted 1:100 in LB media and incubated at 37° C. with shaking until reaching O.D 600 nm=0.1. The bacterial culture was centrifuged at 4000 rpm for 10 minutes at room temperature. The supernatant was discarded and the pellet was resuspended in LB medium supplemented with 0.1 mM MnCl2 and 5 mM MgCl2 at 10% of the initial volume. The concentrated bacterial culture was added to conditioned medium or medium supplemented with synthesized arbitrium peptide in a ratio of 1:9 (bacteria to medium) and incubated for 1 hour at room temperature. Following, the culture was infected with phages at MOI=0.1. Optical density measurements at a wavelength of 600 nm were taken using a TECAN Infinite 200 plate reader in a 96-wells plate.

A further experiment has as its system spBeta. Nature of the experiment: Growth dynamics of phage-infected cultures (spBeta infection of B. subtilis BEST7003). To be noted: B. subtilis BEST7003 infected by spBeta at MOI=0.1, LB supplemented with synthesized peptide. How it is done: as §1
The next experiment deals with AimR (Bacillus phage phi3T, UniProt P0DOE3). Nature of the experiment: ChIP-seq of His-tagged AimR on phage DNA. To be noted: 15 minutes after phage infection, with or without 1 μM peptide. How it is done:
For the ChIP-seq experiments, B. subtilis cell cultures were grown in 100 ml to O.D of 0.1 in LB at 37° C. Following, 50 ml of culture was centrifuged at 4000 rpm for 10 minutes at room temperature. The pellets were then suspended with 25 ml LB either containing or lacking the peptide (SAIRGA, SEQ ID NO: 269) at a final concentration of 1 μM. The cultures were placed for an additional incubation hour at room temperature with shaking. The cultures were then infected with phage (MOI=0.5) having a final plaque forming units (PFU) of 5×10^7 PFU/ml phages. 15 minutes post phage infection the cultures were centrifuged at 3000 g for 5 minutes at 4° C. The supernatant was discarded and the pellets were resuspended with 1 ml of ice-cold 1×PBS (10 mM Phosphate, 137 mM NaCl, 2.7 mM KCl, pH of 7.4).
For the formaldehyde fixation of protein to DNA, the 1 ml PBS resuspended pellets were mixed with 62.5 μl formaldehyde (Thermoscientific 16% formaldehyde solution (w/v) methanol-free ampule) yielding a final formaldehyde concentration of 1% (w/v) within the solution. The formaldehyde-containing cell suspension was incubated at room temperature for 10 minutes with mild agitation. Following, 75 μl 2M Glycine (f.c. 150 mM) was added to quench residual formaldehyde. Glycine-containing samples were kept on ice for an additional 10 minutes followed by centrifugation at 5500 g for 1 minute at 4° C. […]

Experiment [1] has as its system Bacillus subtilis BEST7003 containing Construct #2. The experiment is described as follows: GFP reporter expression, Construct #2. To be noted: Construct #2, peptide 62.5 nM-1000 nM in LB.
Procedure: Starter growths of wild type (WT) Bacillus subtilis BEST7003 strain and of Bacillus subtilis BEST7003 strains containing Construct #1 or Construct #2 were cultured in 3 ml Luria-Bertani (LB) broth until the growth curve indicated stationary phase. Following, the bacterial cells were diluted in a ratio of 1/100 in LB broth or LB broth supplemented with a SAIRGA (SEQ ID NO: 269) peptide at a concentration range of 62.5 nM-1000 nM. Optical density (O.D. at 600 nm) and GFP fluorescence levels (488 nm excitation/518 nm emission) were measured over time in a 96 wells plate using a TECAN Infinite 200 plate reader.

Chain of AimR (P0DOE3 whole entry): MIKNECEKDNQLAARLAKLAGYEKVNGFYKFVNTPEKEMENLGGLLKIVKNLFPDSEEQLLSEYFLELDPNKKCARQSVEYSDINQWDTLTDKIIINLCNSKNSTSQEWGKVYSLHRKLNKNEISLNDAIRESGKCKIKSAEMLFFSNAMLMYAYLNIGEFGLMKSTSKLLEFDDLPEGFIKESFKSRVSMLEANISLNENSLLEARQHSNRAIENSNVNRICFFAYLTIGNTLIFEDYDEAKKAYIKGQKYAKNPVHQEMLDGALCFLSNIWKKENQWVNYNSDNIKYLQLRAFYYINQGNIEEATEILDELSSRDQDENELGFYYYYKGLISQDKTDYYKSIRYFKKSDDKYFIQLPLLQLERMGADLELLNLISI

For `CC[C@H](C)[C@H](NC(=O)[C@H](C)NC(=O)[C@@H](N)CO)C(=O)N[C@@H](CCCNC(=N)N)C(=O)NCC(=O)N[C@@H](C)C(=O)O` [SAIRGA, Ser-Ala-Ile-Arg-Gly-Ala], the “effect on the phage infection dynamics (culture lysis, growth curve)” value in the experiment on phi3T (B. subtilis 168 infected by phi3T at MOI=0.1, LB supplemented with synthesized peptide) is listed as “reduced culture lysis”. Further, the “peptide concentration of maximal effect on the culture growth curve” value in the experiment with phi3T (B. subtilis 168 infected by phi3T at MOI=0.1, effect saturated above) was 500 nM. For the same compound, the “effect on lysogeny / infection dynamics of spBeta” value with spBeta was “had no effect on the infection dynamics of spBeta”. In addition, the “binding of AimR to its site in the phage genome (ChIP-seq)” value on AimR is “this binding only occurred when the arbitrium peptide was absent”. The “GFP expression in presence of peptide” value in experiment [1] is “differential expression of GFP dependent on the concentration of the peptide”.
